Reference: PubChem BioAssay (NCI)
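Briefly, cells in 96-well plates were exposed to five compound concentrations for 48 h, and endpoints were estimated by linear interpolation. TGI: total growth inhibition.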

Key:
Experiment in all cases: DTP human tumour cell line panel, 48 h
[1] = test system: DMS 273 small cell lung
[2] = test system: HT29 colon
[3] = test system: SN12C renal
[4] = test system: MOLT-4 leukemia
[5] = test system: OVCAR-3 ovarian
[6] = test system: 786-0 renal
[7] = test system: LXFL 529 NSCLC
[8] = test system: ACHN renal
[9] = test system: NCI-H460 lung
[10] = test system: HCT-15 colon
[11] = test system: SF-295 CNS
[12] = test system: IGROV1 ovarian
[13] = test system: A498 renal
[14] = test system: KM12 colon
[15] = test system: TK-10 renal
[16] = test system: HOP-62 NSCLC
[17] = test system: OVCAR-4 ovarian
[18] = test system: HCT-116 colon
[19] = test system: SK-MEL-2 melanoma
[20] = test system: CCRF-CEM leukemia
[21] = test system: M19-MEL melanoma
[22] = test system: HL-60(TB) leukemia
[23] = test system: NCI-H23 lung
[24] = test system: UACC-257 melanoma
[25] = test system: OVCAR-8 ovarian
[26] = test system: KM20L2 colon
[27] = test system: EKVX NSCLC
[28] = test system: UO-31 renal
[29] = test system: UACC-62 melanoma
[30] = test system: SW-620 colon
[31] = test system: SNB-19 CNS
[32] = test system: HOP-92 NSCLC
[33] = test system: HCC-2998 colon
[34] = test system: RXF-631 renal
[35] = test system: A549 NSCLC
[36] = test system: U251 CNS
[37] = test system: DMS 114 small cell lung
[38] = test system: SF-539 CNS
[39] = test system: NCI-H226 lung
[40] = test system: DLD-1 colon
[41] = test system: M14 melanoma
[42] = test system: MALME-3M melanoma
[43] = test system: RPMI-8226 leukemia
[44] = test system: RXF 393 renal
[45] = test system: COLO 205 colon
[46] = test system: LOX IMVI melanoma
[47] = test system: K-562 leukemia
[48] = test system: SK-OV-3 ovarian
[49] = test system: SNB-75 CNS
[50] = test system: NCI-H522 lung
[51] = test system: CAKI-1 renal
[52] = test system: SNB-78 CNS
[53] = test system: XF 498 CNS
[54] = test system: SK-MEL-5 melanoma
[55] = test system: HOP-18 NSCLC
[56] = test system: OVCAR-5 ovarian
[57] = test system: SK-MEL-28 melanoma
[58] = test system: SF-268 CNS

In the case of `O=C(OC1CCC(=C2SCCCS2)[C@H]1C1SCCCS1)c1ccccc1` (stereo partly drawn), the TGI [1] is reported as > 100 µM, the TGI [2] is reported as > 100 µM and the TGI [3] is reported as > 100 µM. For the same compound, the TGI [4] was > 100 µM, the TGI [5] was > 100 µM and the TGI [6] was > 100 µM. The TGI [7] was > 100 µM, the TGI [8] was > 100 µM and the TGI [9] was > 100 µM. For the same compound, the TGI [10] was > 100 µM, the TGI [11] was > 100 µM and the TGI [12] was > 100 µM. The TGI [13] was > 100 µM, the TGI [14] was > 100 µM and the TGI [15] was > 100 µM. The TGI [16] was > 100 µM, the TGI [17] was > 100 µM and the TGI [18] was > 100 µM. The TGI [19] was > 100 µM, the TGI [20] was > 100 µM and the TGI [21] was > 100 µM. The TGI [22] was > 100 µM, the TGI [23] was > 100 µM and the TGI [24] was > 100 µM. For the same compound, the TGI [25] was > 100 µM, the TGI [26] was > 100 µM and the TGI [27] was > 100 µM. The TGI [28] was > 100 µM, the TGI [29] was > 100 µM and the TGI [30] was > 100 µM. The TGI [31] was > 100 µM, the TGI [32] was > 100 µM and the TGI [33] was > 100 µM. The TGI [34] was > 100 µM, the TGI [35] was > 100 µM and the TGI [36] was > 100 µM. For the same compound, the TGI [37] was > 100 µM, the TGI [38] was > 100 µM and the TGI [39] was > 100 µM. The TGI [40] was > 100 µM, the TGI [41] was > 100 µM and the TGI [42] was > 100 µM. For the same compound, the TGI [43] was > 100 µM, the TGI [44] was > 100 µM and the TGI [45] was > 100 µM. The TGI [46] was > 100 µM, the TGI [47] was > 100 µM and the TGI [48] was > 100 µM.
With `Cc1ccc(C)c(NC(=O)c2cccc([N+](=O)[O-])c2O)c1` the TGI [49] was 63.8 µM, the TGI [1] was 77.5 µM and the TGI [2] was > 100 µM. The TGI [3] was > 100 µM, the TGI [4] was > 100 µM and the TGI [5] was > 100 µM. The TGI [6] was > 100 µM, the TGI [50] was 67.2 µM and the TGI [7] was > 100 µM. For the same compound, the TGI [8] was 57.6 µM, the TGI [51] was > 100 µM and the TGI [9] was 68.4 µM. The TGI [10] was > 100 µM, the TGI [11] was 41.5 µM and the TGI [12] was > 100 µM. The TGI [13] was 80.9 µM, the TGI [14] was 61.5 µM and the TGI [16] was 47.1 µM. The TGI [17] was 80.8 µM, the TGI [18] was 81 µM and the TGI [20] was > 100 µM. The TGI [21] was 82.1 µM, the TGI [22] was > 100 µM and the TGI [23] was 49 µM. For the same compound, the TGI [24] was 63 µM, the TGI [25] was > 100 µM and the TGI [26] was > 100 µM. The TGI [27] was > 100 µM, the TGI [28] was 51.9 µM and the TGI [29] was 82.9 µM. For the same compound, the TGI [30] was > 100 µM, the TGI [31] was > 100 µM and the TGI [32] was 41.3 µM. For the same compound, the TGI [52] was 56.9 µM, the TGI [33] was > 100 µM and the TGI [35] was > 100 µM. For the same compound, the TGI [36] was > 100 µM, the TGI [37] was 47.6 µM and the TGI [38] was > 100 µM. The TGI [39] was 68.8 µM, the TGI [40] was > 100 µM and the TGI [41] was > 100 µM. For the same compound, the TGI [42] was 81.6 µM, the TGI [43] was > 100 µM and the TGI [44] was 37.8 µM. For the same compound, the TGI [53] was 67.3 µM, the TGI [45] was 31.1 µM and the TGI [46] was 53.5 µM. The TGI [47] was > 100 µM, the TGI [54] was 25.2 µM and the TGI [55] was > 100 µM. For the same compound, the TGI [48] was > 100 µM, the TGI [56] was > 100 µM and the TGI [57] was > 100 µM. For the same compound, the TGI [58] was > 100 µM.
